Data on 3 compounds can be found in patent publication US20230219951A1, “PYRIDINE-PYRIMIDINE DERIVATIVE, PREPARATION METHOD THEREFOR AND PHARMACEUTICAL USE THEREOF” (Jiangsu Hengrui Pharmaceuticals Co., Ltd., priority 2020, published 2023).

The target of assay [1] is T1, interaction between the KRAS protein subtype G12D and the SOS1 protein (Homo sapiens, UniProt Q07889).
T1 construct: GST-TEV-SOS1(564-1049) (Viva Biotech, SOS1-191010); purchased SOS1: Viva Biotech; KRAS: Shanghai Panchao Biotechnology Co., Ltd. SOS1-191010
T1 sequence (Q07889 564-1049): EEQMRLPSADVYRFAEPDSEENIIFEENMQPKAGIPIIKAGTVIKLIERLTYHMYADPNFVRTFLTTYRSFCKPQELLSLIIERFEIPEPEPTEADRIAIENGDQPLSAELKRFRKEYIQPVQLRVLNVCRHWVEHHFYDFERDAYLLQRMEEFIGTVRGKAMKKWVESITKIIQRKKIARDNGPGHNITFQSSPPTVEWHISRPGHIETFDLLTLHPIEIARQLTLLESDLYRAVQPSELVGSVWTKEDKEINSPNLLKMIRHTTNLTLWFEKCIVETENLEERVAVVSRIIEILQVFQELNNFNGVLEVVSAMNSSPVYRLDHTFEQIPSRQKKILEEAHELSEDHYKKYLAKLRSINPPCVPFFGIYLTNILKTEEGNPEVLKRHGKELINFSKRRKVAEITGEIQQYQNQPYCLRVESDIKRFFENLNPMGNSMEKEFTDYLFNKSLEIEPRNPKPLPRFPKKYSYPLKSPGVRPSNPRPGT
The assay can be described thus: Inhibition of the interaction between KRAS G12D and SOS1 protein (AlphaLISA/AlphaScreen). It counts as binding. As to conditions: KRAS G12D + GST-TEV-SOS1(564-1049) + GDP. On the procedure:
(§1) Test Example 1: Inhibitory Ability of Compounds of the Present Disclosure to the Interaction Between the KRAS Protein Subtype G12D or G12V and the SOS1 Protein. The inhibitory ability of the compounds of the present disclosure to the interaction between the KRAS protein subtype G12D or G12V and the SOS1 protein was determined by the following method. The experimental method was briefly described as follows:
(§2) 1. The experimental buffer was prepared prior to the start of the experiment: 1×PBS+0.1% BSA+0.05% tween 20.
(§3) 2. KRAS G12D and KRAS-G12V proteins were labeled with biotin using the biotin labeling kit.
(§4) 1. Firstly, the biotin-labeled KRAS G12D or KRAS G12V protein was mixed and incubated with the SOS1 protein and GDP for later use.
(§5) 2. AlphaLISA glutathione acceptor beads and AlphaScreen streptavidin donor beads were mixed at a ratio of 1:1 to make the concentration of 40 μg/mL for later use.
(§6) 3. The compound was formulated with the experimental buffer to obtain 10 concentration points by 5-fold gradient dilution from an initial concentration of 40 μM.
(§7) 4. In the 384-well microplate, 10 μL of a mixture of KRAS G12D or KRAS G12V protein and SOS1 and GDP and 5 μL of the diluted compound were added to each well and incubated at room temperature for 30 min away from the light.
(§8) 5. Then, 5 μL of a mixture of AlphaLISA glutathione acceptor beads and AlphaScreen streptavidin donor beads was added to each well and incubated at room temperature for 60 min away from the light.
(§9) 6. The fluorescence values were read on a multi-mode microplate reader.
(§10) 7. IC50 values of the compounds were calculated using Graphpad Prism.
Background: Bead proximity is the source of the signal in Alpha formats.

Assay [2] has as its target T2, interaction between the KRAS protein subtype G12V and the SOS1 protein (Homo sapiens, UniProt Q07889).
T2 construct: GST-TEV-SOS1(564-1049) (Viva Biotech, SOS1-191010); purchased SOS1: Viva Biotech; KRAS: Shanghai Panchao Biotechnology Co., Ltd. SOS1-191010
T2 sequence (Q07889 564-1049): T1 sequence (Q07889 564-1049)
The assay is described as follows: Inhibition of the interaction between KRAS G12V and SOS1 protein (AlphaLISA/AlphaScreen). It counts as binding. As to conditions: KRAS G12V + GST-TEV-SOS1(564-1049) + GDP. On the procedure:
as §1, §2, §3, §4, §5, §6, §7, §8, §9, §10

The test system of assay [3] is ERK phosphorylation of H358 cells. The assay is described as follows: Inhibition of ERK phosphorylation of H358 cells (HTRF pERK/total ERK). It counts as cell-based. As to conditions: Homo sapiens, NCI-H358, 1 h incubation, pERK/total ERK ratio. On the procedure: This experiment is intended to evaluate the inhibition effect of the compounds of the present disclosure on the KRAS target (containing the G12C mutation) according to IC50 by determining the inhibition effect of the compounds on ERK phosphorylation of the cells.
H358 cells (ATCC, CRL-5807) were cultured in RPMI1640 (Hyclone, SH30809.01) complete medium containing 10% fetal bovine serum. On the first day of the experiment, the H358 cells were seeded into a 96-well plate at a density of 25,000 cells/well with a complete medium to form 190 μL of cell suspension per well. The plate was incubated overnight in a cell incubator at 37° C. with 5% CO2. The next day, 10 μL of test compound diluted in a gradient prepared with the complete medium was added to each well. The final concentrations of the compound were 9 concentration points obtained by 5-fold gradient dilution from 10 μM. A blank control containing 0.1% DMSO was set. The plate was incubated in a cell incubator at 37° C. with 5% CO2 for 1 h. 1 h later, the 96-well cell culture plate was taken out, the medium was removed by pipetting, 200 μL PBS (Shanghai BasalMedia Technologies Co., Ltd., B320) was added to each well, and the cells were washed once. PBS was removed by pipetting, 50 μL of lysis buffer (Cisbio, 64KL1FDF) containing a blocking reagent (Cisbio, 64KB1AAC) was added to each well, and the plate was shaken on a shaker at room temperature for 40 min for lysis. After lysis, the lysate was pipetted and mixed well, 16 μL of lysate was transferred from each well to each of two HTRF 96-well assay plates (Cisbio, 66PL96100), and then 4 μL of premixed phospho-ERK1/2 antibody solution (Cisbio, 64AERPEG) or 4 μL of premixed total-ERK1/2 antibody solution (Cisbio, 64NRKPEG) was added to each of the two plates. The microplate was sealed with a sealing membrane, centrifuged for 1 min in a microplate centrifuge, and incubated overnight at room temperature away from the light. On the third day, the fluorescence values at an excitation wavelength of 337 nm and at emission wavelengths of 665 nm and 620 nm were read using a PHERAstar multi-mode microplate reader (BMG Labtech, S/N 471-0361).
IC50 values for inhibitory activity of the compounds were calculated using Graphpad Prism software based on compound concentrations and pERK/total ERK ratio.
For orientation: Time-resolved FRET reads energy transfer from a long-lived donor to a nearby acceptor.

The next assay deals with H358 cells. The assay can be described thus: Inhibition of proliferation of H358 cells (CellTiter-Glo 3D). It counts as cell-based. As to conditions: Homo sapiens, NCI-H358, low adsorption plate, 120 h. As to the method: This example is intended to evaluate the inhibition effect of the compounds of the present disclosure on the KRAS target (containing the G12C mutation) by testing the inhibition effect of the compounds of the present disclosure on the proliferation of H358 cells.
H358 cells (ATCC, CRL-5807) were cultured in a complete medium, namely RPMI1640 medium (Hyclone, SH30809.01) containing 10% fetal bovine serum (Corning, 35-076-CV). On the first day of the experiment, the H358 cells were seeded into a 96-well low adsorption plate (Coming, CLS7007-24EA) at a density of 1500 cells/well with a complete medium to form 90 μL of cell suspension per well. The plate was centrifuged at 2000 rpm for 5 min at room temperature and then incubated overnight in a cell incubator at 37° C. with 5% CO2. The next day, 10 μL of test compound diluted in a gradient prepared with the complete medium was added to each well. The final concentrations of the compound were 9 concentration points obtained by 5-fold gradient dilution from 10 μM. A blank control containing 0.1% DMSO was set. The plate was incubated in a cell incubator at 37° C. with 5% CO2 for 120 h. On the seventh day, the 96-well cell culture plate was taken out and 50 μL of CellTiter-Glo® 3D reagent (Promega, G9682) was added into each well. The plate was shaken at room temperature for 25 min, pipetted and mixed well, from which 50 μL of the mixture was transferred into a white impermeable 96-well plate (PE, 6005290). The luminescence signal values were read using a multi-mode microplate reader (PerkinElmer, VICTOR 3).
IC50 values for the inhibitory activity of the compounds were calculated using Graphpad Prism software.
A general note: ATP-based viability assays read luminescence as a measure of living cells.

Usually IC50 stands for the concentration at which inhibition is half-maximal.

SMILES strings stand for the structures.

For the compound `Cc1nc(N[C@H](C)c2cccc3c2OCC3(F)F)c2cc([C@]3(O)CC[C@H](O)CC3)c(=O)[nH]c2n1` (racemic) [Example 25-p2, rac-4-(((R)-1-(3,3-difluoro-2,3-dihydrobenzofuran-7-yl)ethyl)amino)-6-((1r,4R)-1,4-dihydroxycyclohexyl)-2-methylpyrido[2,3-d]pyrimidin-7(8H)-one], the IC50 was 37 nM in assay [1], 65 nM in assay [2], 489 nM in assay [3] and 1020 nM in the assay on H358 cells.

For the compound `Cc1nc(N[C@H](C)c2cccc(C(F)F)c2F)c2cc([C@]3(O)CC[C@@H](O)CC3)c(=O)n(C)c2n1` [Example 28-p1, 4-(((R)-1-(3-(difluoromethyl)-2-fluorophenyl)ethyl)amino)-6-((1s,4S)-1,4-dihydroxycyclohexyl)-2,8-dimethylpyrido[2,3-d]pyrimidin-7(8H)-one], the IC50 in assay [1] worked out at 100 nM; in assay [2] it was 97 nM; in assay [3] it was 231 nM; in the assay with H358 cells, 243 nM.

As for `CC(=O)N1CC=C(c2cc3c(N[C@H](C)c4cc(N)cc(C(F)(F)F)c4)nc(C)nc3[nH]c2=O)CC1` [Example 4, (R)-6-(1-acetyl-1,2,3,6-tetrahydropyridin-4-yl)-4-((1-(3-amino-5-(trifluoromethyl)phenyl)ethyl)amino)-2-methylpyrido[2,3-d]pyrimidin-7(8H)-one], the IC50 in assay [1] came out at 17 nM; in assay [2] it was 67 nM; in assay [3], 41 nM; in the assay with H358 cells it was 97 nM.
